Where a name gives a salt, the structure may show the parent alone.

Data on 25 molecules can be found in patent publication US20230011869A1 (Hoffmann-La Roche Inc., priority 2018, published 2023).

The first assay deals with Acinetobacter baumannii ATCC17978. The assay is described as follows: Antimicrobial susceptibility testing: 90% growth inhibitory concentration (IC90) determination, Iso-Sensitest broth. Type of assay: cell-based. The conditions noted are these: 90% growth inhibitory concentration, Acinetobacter baumannii ATCC17978, Iso-Sensitest broth, OD 600 nm over 16 h; read-out: ATCC17978 IC90. The method in brief:
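A. baumannii ATCC17978 grown in Iso-Sensitest broth across 10 compound concentrations at 35±2 °C.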
Regarding `COc1ccc(-c2cnc3c(Nc4ccc(C(=O)N5CCCCC5CN(C)C)c(C)c4)nccn23)cc1F` (stereo not shown) [Example 253, [2-[(dimethylamino)methyl]pi-peridin-1-yl]-[4-[[3-(3-fluoro-4-methoxyphenyl)imidazo[1,2-a]pyrazin-8-yl]amino]-2-methylphenyl]methanone; for-mic acid], the IC90 is 6.7 µM.
For `COc1ccc(-c2cnc3c(Nc4ccc(C(=O)N5CCNC(CN(C)C)C5)c(C)c4)nccn23)cc1F` (stereo not shown) [Example 254, [3-[(dimethylamino)methyl]pi-perazin-1-yl]-[4-[[3-(3-fluoro-4-methoxyphenyl)imidazo[1,2-a]pyrazin-8-yl]amino]-2-methylphenyl]methanone; hy-drochloride], the IC90 was 2.1 µM.
The same measure, in the same setting: the result for `Cc1cc(Nc2nccn3c(-c4ccc(OC(F)F)cc4)cnc23)ccc1C(=O)N1CCN(C(=O)C(O)CN)CC1` (stereo not shown) [Example 255, 3-amino-1-[4-[4-[[3-[4-(difluoromethoxy)phenyl]imi-dazo[1,2-a]pyrazin-8-yl]amino]-2-methylbenzoyl]piperazin-1-yl]-2-hydroxypropan-2-one; 2,2,2-trifluoroacetc acid] reads 0.73 µM.
In the case of `COc1ccc(-c2cnc3c(Nc4ccc(C(=O)N5CCN(Cc6cnc[nH]6)CC5)c(C)c4)nccn23)cc1F` [Example 256, [4-[[3-(3-fluoro-4-methoxyphenyl)imidazo[1,2-a]pyrazin-8-yl]amino]-2-methylphenyl]-[4-(1H-imidazol-5-ylmethyl)piperazin-1-yl]methanone], the IC90 was 0.76 µM.
The same measure, in the same setting: the result for `COc1ccc(-c2cnc3c(Nc4ccc(C(=O)N5CCC(C(=O)NCC(O)C(O)CO)CC5)c(C)c4)nccn23)cc1F` (stereo not shown) [Example 257, 1-[4-[[3-(3-fluoro-4-methoxyphenyl)imidazo[1,2-a]pyrazin-8-yl]amino]-2-methylbenzoyl]-N-(2,3,4-trihydroxybutyl)piperidine-4-carboxamide] reads 0.85 µM; that for `COc1ccc(-c2cnc3c(Nc4ccc(C(=O)N5CCC(C(=O)N6CCNC(C(=O)O)C6)CC5)c(C)c4)nccn23)c(F)c1F` (stereo not shown) [Example 266, 4-[1-[4-[[3-(2,3-difluoro-4-methoxyphenyl)imidazo[1,2-a]pyrazin-8-yl]amino]-2-methylbenzoyl]piperidine-4-carbonyl]piperazine-2-carboxylic acid], 1.1 µM; that for `Cc1cc(Nc2nccn3c(-c4ccc(OC(F)F)cc4)cnc23)ccc1C(=O)N1CCN(C(=O)CC[C@@H](N)C(=O)O)CC1` [Example 271, (2R)-2-amino-5-[4-[4-[[3-[4-(difluoromethoxy)phenyl]imi-dazo[1,2-a]pyrazin-8-yl]amino]-2-methylbenzoyl]piperazin-1-yl]-5-oxopentanoic acid; formic acid], 2.1 µM.
`COc1ccc(-c2cnc3c(Nc4ccc(C(=O)N5CCC(C(=O)N6CCN(C)C(C(=O)O)C6)CC5)c(C)c4)nccn23)c(F)c1F` (stereo not shown) [Example 273, 4-[1-[4-[[3-(2,3-difluoro-4-methoxyphenyl)imidazo[1,2-a]pyrazin-8-yl]amino]-2-methylbenzoyl]piperidine-4-carbonyl]-1-methylpiperazine-2-carboxylic acid]: the IC90 was 2.4 µM.
Still for that read-out and setting: the value for `Cc1cc(Nc2nccn3c(-c4ccc(OCC#CCN)c(F)c4)cnc23)ccc1C(=O)N1CCC(CNC(=O)OC(C)(C)C)CC1` [Example 274, tert-butyl N-[[1-[4-[[3-[4-(4-aminobut-2-ynoxy)-3-fluorophenyl]imidazo[1,2-a]pyrazin-8-yl]amino]-2-methylbenzoyl]piperidin-4-yl]methyl]carbamate] was 2.8 µM.

Staying with this assay, now noted: Acinetobacter baumannii, ATCC17978, 16 h, read-out: ATCC17978 IC90, 90% growth inhibitory concentration, Acinetobacter baumannii ATCC17978, Iso-Sensitest broth, OD 600 nm over 16 h.
Consider `Cc1cc(Nc2nccn3c(-c4ccc(OC(F)F)cc4)cnc23)ccc1C(=O)N1CCN(C(=O)[C@H](N)C(C)C)CC1` [Example 258, hydrochloride], for which the IC90 is 0.89 µM.
On the same count and under the same terms, the result for `Cc1cc(Nc2nccn3c(-c4ccc(OC(F)F)cc4)cnc23)ccc1C(=O)N1CCN(C(=O)[C@H](N)C2CC2)CC1` [Example 260, (2R)-2-amino-2-cyclopropyl-1-[4-[4-[[3-[4-(difluoromethoxy)phenyl]imi-dazo[1,2-a]pyrazin-8-yl]amino]-2-methylbenzoyl]piperazin-1-yl]ethanone; hydrochloride] reads 1 µM; that for `CC[C@@H](N)C(=O)N1CCN(C(=O)c2ccc(Nc3nccn4c(-c5ccc(OC(F)F)cc5)cnc34)cc2C)CC1` [Example 261, (2R)-2-amino-1-[4-[4-[[3-[4-(difluoromethoxy)phenyl]imi-dazo[1,2-a]pyrazin-8-yl]amino]-2-methylbenzoyl]piperazin-1-yl]butan-1-one; hydrochloride], 1 µM.
Turning to `Cc1cc(Nc2nccn3c(-c4ccc(OC(F)F)cc4)cnc23)ccc1C(=O)N1CCN(C(=O)[C@@H](N)CCCNC(N)=O)CC1` [Example 262, [(4S)-4-amino-5-[4-[4-[[3-[4-(difluoromethoxy)phenyl]imi-dazo[1,2-a]pyrazin-8-yl]amino]-2-methylbenzoyl]piperazin-1-yl]-5-oxopentyl]urea], the IC90 worked out at 1 µM.
`Cc1cc(Nc2nccn3c(-c4ccc(OC(F)F)cc4)cnc23)ccc1C(=O)N1CCC(C(=O)N[C@@H]2CCNC2)CC1` [Example 263, 1-[4-[[3-[4-(difluoromethoxy)phenyl]imi-dazo[1,2-a]pyrazin-8-yl]amino]-2-methylbenzoyl]-N-[(3R)-pyrrolidin-3-yl]piperidine-4-carboxamide; hydrochloride]: the IC90 worked out at 1.1 µM.
Regarding `COc1ccc(-c2cnc3c(Nc4ccc(C(=O)N5CCC(C(=O)N6CCNC(C(=O)O)C6)CC5)c(C)c4)nccn23)cc1F` (stereo not shown) [Example 264, 4-[1-[4-[[3-(3-fluoro-4-methoxyphenyl)imidazo[1,2-a]pyrazin-8-yl]amino]-2-methylbenzoyl]piperidine-4-carbonyl]piperazine-2-carboxylic acid; formic acid], the IC90 was 1.1 µM.
Same read-out and setting: the value for `Cc1cc(Nc2nccn3c(-c4ccc(OC(F)F)cc4)cnc23)ccc1C(=O)N1CCN(C(=O)[C@H]2CC[C@H](C(=O)O)CC2)CC1` [Example 265, 4-[4-[4-[[3-[4-(difluoromethoxy)phenyl]imi-dazo[1,2-a]pyrazin-8-yl]amino]-2-methylbenzoyl]piperazine-1-carbonyl]cyclohexane-1-carboxylic acid] was 1.1 µM; that for `Cc1cc(Nc2nccn3c(-c4ccc(OC(F)F)cc4)cnc23)ccc1C(=O)N1CCN(C(=O)C2(C)CNC2)CC1` [Example 267, [4-[[3-[4-(difluoromethoxy)phenyl]imi-dazo[1,2-a]pyrazin-8-yl]amino]-2-methylphenyl]-[4-(3-methylazetidine-3-carbonyl)piperazin-1-yl]methanone] was 1.3 µM.
For `Cc1cc(Nc2nccn3c(-c4ccc(OC(F)F)cc4)cnc23)ccc1C(=O)N1CCC(C(=O)N(C)C[C@H](O)[C@@H](O)[C@@H](O)[C@H](O)CO)CC1` [Example 268, 1-[4-[[3-[4-(difluoromethoxy)phenyl]imi-dazo[1,2-a]pyrazin-8-yl]amino]-2-methylbenzoyl]-N-methyl-N-[(2S,3R,4S,5R)-2,3,4,5,6-pentahydroxyhexyl]piperidine-4-carboxamide], the IC90 is 1.5 µM.
The same measure, in the same setting: the value for `Cc1cc(Nc2nccn3c(-c4ccc(OC(F)F)cc4)cnc23)ccc1C(=O)N1CCN(C(=O)c2cc(C(=O)O)ncn2)CC1` [Example 269, 6-[4-[4-[[3-[4-(difluoromethoxy)phenyl]imi-dazo[1,2-a]pyrazin-8-yl]amino]-2-methylbenzoyl]piperazine-1-carbonyl]pyrimidine-4-carboxylic acid] was 2 µM; that for `Cc1cc(Nc2nccn3c(-c4ccc(OC(F)F)cc4)cnc23)ccc1C(=O)N1CCC(C(=O)N2C[C@H](O)[C@@H](O)[C@@H](O)[C@H]2CO)CC1` [Example 270, [4-[[3-[4-(difluoromethoxy)phenyl]imi-dazo[1,2-a]pyrazin-8-yl]amino]-2-methylphenyl]-[4-[(2R,3S,4R,5S)-3,4,5-trihydroxy-2-(hydroxymethyl)piperidine-1-carbonyl]piperidin-1-yl]methanone] was 2 µM; that for `Cc1cc(Nc2nccn3c(-c4ccc(OC(F)F)cc4)cnc23)ccc1C(=O)N1CCN(C(=O)[C@@H](N)CCC(=O)O)CC1` [Example 272, (4S)-4-amino-5-[4-[4-[[3-[4-(difluoromethoxy)phenyl]imi-dazo[1,2-a]pyrazin-8-yl]amino]-2-methylbenzoyl]piperazin-1-yl]-5-oxopentanoic acid; hydrochloride] was 2.2 µM.
On to `Cc1cc(Nc2nccn3c(-c4ccc(OC(F)F)cc4)cnc23)ccc1C(=O)N1CCN(C(=O)[C@H](N)CCC(=O)O)CC1` [Example 275, (4R)-4-amino-5-[4-[4-[[3-[4-(difluoromethoxy)phenyl]imi-dazo[1,2-a]pyrazin-8-yl]amino]-2-methylbenzoyl]piperazin-1-yl]-5-oxopentanoic acid; hydrochloride], for which the IC90 turned out to be 3.1 µM.
For the molecule `Cc1cc(Nc2nccn3c(-c4ccc(OC(F)F)cc4)cnc23)ccc1C(=O)N1CCN(C(=O)c2cccc(S(=O)(=O)O)c2)CC1` [Example 276, 3-[4-[4-[[3-[4-(difluoromethoxy)phenyl]imi-dazo[1,2-a]pyrazin-8-yl]amino]-2-methylbenzoyl]piperazine-1-carbonyl]benzenesulfonic acid], the IC90 was determined as 3.3 µM.
Regarding `Cc1cc(Nc2nccn3c(-c4ccc(OC(F)F)cc4)cnc23)ccc1C(=O)N1CCN(C(=O)c2cccc(C(=O)O)c2)CC1` [Example 277, 3-[4-[4-[[3-[4-(difluoromethoxy)phenyl]imi-dazo[1,2-a]pyrazin-8-yl]amino]-2-methylbenzoyl]piperazine-1-carbonyl]benzoic acid], the IC90 is 3.8 µM.

The assay is the same for the next values; noted with them: read-out: ATCC17978 IC90; 90% growth inhibitory concentration, Acinetobacter baumannii ATCC17978, Iso-Sensitest broth, OD 600 nm over 16 h.
As for `Cc1cc(Nc2nccn3c(-c4ccc(OC(F)F)cc4)cnc23)ccc1C(=O)N1CCN(C(=O)CN)CC1` [Example 259, 2-amino-1-[4-[4-[[3-[4-(difluoromethoxy)phenyl]imi-dazo[1,2-a]pryazin-8-yl]amino]-2-methylbenzoyl]piperazin-1-yl]ethanone; formic acid], the IC90 was 0.89 µM.
